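Tested at 5 concentrations; 48 h exposure; 96-well plates; endpoints linearly interpolated, else capped at highest concentration. The concentration for 50% growth inhibition is given as GI50.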 Activity calls are given as the source filed them. No stated cut-off is given here; in the data, active = GI50 up to about 1.1 µM and inactive = higher.
Legend:
Test in all cases: NCI tumour cell line growth inhibition, 48 h
[1] = system: OVCAR-8
[2] = system: SK-MEL-28
[3] = system: IGROV-1
[4] = system: TK-10
[5] = system: HOP-18
[6] = system: SNB-75
[7] = system: A549
[8] = system: UACC-257
[9] = system: SN12C
[10] = system: HOP-62
[11] = system: OVCAR-4
[12] = system: SF-539
[13] = system: KM12
[14] = system: OVCAR-3
[15] = system: HCT-116
[16] = system: Malme-3M
[17] = system: NCI-H522
[18] = system: RXF 631
[19] = system: SK-OV-3
[20] = system: CCRF-CEM
[21] = system: ACHN
[22] = system: EKVX
[23] = system: K562
[24] = system: KM-20L2
[25] = system: M19-MEL
[26] = system: LOX IMVI
[27] = system: SF-268
[28] = system: DMS-273
[29] = system: NCI-H226
[30] = system: COLO 205
[31] = system: SF-295
[32] = system: SK-MEL-5
[33] = system: OVCAR-5
[34] = system: SW-620
[35] = system: SNB-19
[36] = system: LXFL 529
[37] = system: 786-0
[38] = system: M14
[39] = system: SNB-78
[40] = system: HT-29
[41] = system: A498
[42] = system: NCI-H23
[43] = system: UO-31
[44] = system: SK-MEL-2
[45] = system: HCC 2998
[46] = system: DMS-114
[47] = system: DLD-1
[48] = system: UACC-62
[49] = system: HCT-15
[50] = system: NCI-H460
[51] = system: RXF 393
[52] = system: U-251
[53] = system: XF498
[54] = system: MOLT-4
[55] = system: SR
[56] = system: HOP-92
[57] = system: HL-60
[58] = system: RPMI-8226
[59] = system: CAKI-1

Measured: GI50

CC(=O)OCCOCNC(=S)N/N=C(\C)c1ccco1
> 100 µM: [49]
inactive: [1] > 100 µM | [2] > 100 µM | [3] > 100 µM | [4] > 100 µM | [5] > 100 µM | [6] 61 µM | [7] > 100 µM | [8] > 100 µM | [9] > 100 µM | [10] > 100 µM | [11] > 100 µM | [12] > 100 µM | [13] > 100 µM | [14] > 100 µM | [15] > 100 µM | [16] > 100 µM | [17] > 100 µM | [18] > 100 µM | [19] > 100 µM | [20] > 100 µM | [21] > 100 µM | [22] > 100 µM | [23] > 100 µM | [24] > 100 µM | [25] > 100 µM | [26] > 100 µM | [27] > 100 µM | [28] > 100 µM | [29] 64.6 µM | [30] > 100 µM | [31] > 100 µM | [32] > 100 µM | [33] > 100 µM | [34] > 100 µM | [35] > 100 µM | [36] > 100 µM | [37] > 100 µM | [38] > 100 µM | [39] > 100 µM | [40] > 100 µM | [41] > 100 µM | [42] > 100 µM | [43] > 100 µM | [44] > 100 µM | [45] > 100 µM | [46] > 100 µM | [47] > 100 µM | [48] > 100 µM | [50] > 100 µM | [51] > 100 µM | [52] > 100 µM

Cc1cc2c(CC(=O)O)n[nH]c2c(C(=O)O)c1C
inactive: [1] > 100 µM | [2] > 100 µM | [4] > 100 µM | [5] > 100 µM | [6] > 100 µM | [7] > 100 µM | [8] > 100 µM | [9] > 100 µM | [53] > 100 µM | [10] > 100 µM | [12] > 100 µM | [14] > 100 µM | [15] > 100 µM | [16] > 100 µM | [18] > 100 µM | [19] > 100 µM | [20] > 100 µM | [21] > 100 µM | [22] > 100 µM | [24] > 100 µM | [25] > 100 µM | [26] > 100 µM | [27] > 100 µM | [54] > 100 µM | [28] > 100 µM | [29] > 100 µM | [30] > 100 µM | [31] > 100 µM | [55] > 100 µM | [33] > 100 µM | [56] > 100 µM | [57] > 100 µM | [34] > 100 µM | [35] > 100 µM | [36] > 100 µM | [58] > 100 µM | [37] > 100 µM | [39] > 100 µM | [40] > 100 µM | [42] > 100 µM | [43] > 100 µM | [44] > 100 µM | [45] > 100 µM | [47] > 100 µM | [48] > 100 µM | [50] > 100 µM | [51] > 100 µM | [52] > 100 µM
> 100 µM: [49]

O=C1C2=C(c3ccccc31)C(c1ccc(Cl)cc1)N1C(=O)CCSC1=N2 (centres undefined)
67.8 µM: [49]
inactive: [1] > 10 µM | [2] > 100 µM | [3] 98.6 µM | [4] > 100 µM | [6] 43.2 µM | [7] 69.3 µM | [8] > 100 µM | [9] 44.6 µM | [53] 41.3 µM | [10] > 100 µM | [11] 36.1 µM | [12] > 100 µM | [13] 99.5 µM | [14] 84.3 µM | [15] 69.2 µM | [16] 89.3 µM | [17] 45.5 µM | [18] > 100 µM | [19] > 100 µM | [20] 51.1 µM | [21] > 100 µM | [22] 68.2 µM | [23] 81.1 µM | [24] > 100 µM | [25] > 100 µM | [27] > 100 µM | [54] 41.8 µM | [59] > 100 µM | [28] > 100 µM | [29] 51.8 µM | [30] > 100 µM | [31] 99.3 µM | [32] 47.9 µM | [33] > 100 µM | [56] 31.4 µM | [57] 34.8 µM | [34] 63.1 µM | [35] > 100 µM | [36] 53.2 µM | [58] 39 µM | [37] > 100 µM | [38] > 100 µM | [40] > 100 µM | [41] > 100 µM | [42] 76.7 µM | [43] 42.9 µM | [44] > 100 µM | [45] > 100 µM | [46] 67.6 µM | [47] > 100 µM | [48] 54.3 µM | [52] > 100 µM
